Assay results reported in the NIST ThermoML archive (doi:10.1021/acs.jced.5b01075).
Numbers after ± are expanded uncertainties.

Assay: wn = mass fraction of the nth substance listed
Details: 100 kPa, Liquid; for speed of sound: Frequency=3 MHz, Sing-around technique in a fixed-path interferometer; for mass density: Vibrating tube method

Compound: C1CC[C@H]2CCCC[C@@H]2C1 [trans-decahydronaphthalene] + c1ccc2c(c1)CCCC2
- speed of sound (293.15 K, w2 = 0.1003): 1405 ± 1.2 m/s
- speed of sound (293.15 K, w2 = 0.2002): 1412.5 ± 1.3 m/s
- speed of sound (293.15 K, w2 = 0.3): 1420.5 ± 1.3 m/s
- speed of sound (293.15 K, w2 = 0.4002): 1428.8 ± 1.3 m/s
- speed of sound (293.15 K, w2 = 0.5): 1437.7 ± 1.4 m/s
- speed of sound (293.15 K, w2 = 0.6): 1446.9 ± 1.4 m/s
- speed of sound (293.15 K, w2 = 0.7): 1456.8 ± 1.4 m/s
- speed of sound (293.15 K, w2 = 0.8): 1467 ± 1.5 m/s
- speed of sound (293.15 K, w2 = 0.8999): 1477.9 ± 1.5 m/s
- mass density (293.15 K, w2 = 0.1003): 878.7 ± 0.23 kg/m3
- mass density (293.15 K, w2 = 0.2002): 887.89 ± 0.24 kg/m3
- mass density (293.15 K, w2 = 0.3): 897.28 ± 0.24 kg/m3
- mass density (293.15 K, w2 = 0.4002): 906.9 ± 0.25 kg/m3
- mass density (293.15 K, w2 = 0.5): 916.67 ± 0.25 kg/m3
- mass density (293.15 K, w2 = 0.6): 926.69 ± 0.26 kg/m3
- mass density (293.15 K, w2 = 0.7): 936.89 ± 0.27 kg/m3
- mass density (293.15 K, w2 = 0.8): 947.32 ± 0.29 kg/m3
- mass density (293.15 K, w2 = 0.8999): 957.95 ± 0.3 kg/m3
- speed of sound (303.15 K, w2 = 0.1003): 1364.8 ± 1.2 m/s
- speed of sound (303.15 K, w2 = 0.2002): 1372.4 ± 1.3 m/s
- speed of sound (303.15 K, w2 = 0.3): 1380.5 ± 1.3 m/s
- speed of sound (303.15 K, w2 = 0.4002): 1388.9 ± 1.3 m/s
- speed of sound (303.15 K, w2 = 0.5): 1397.9 ± 1.4 m/s
- speed of sound (303.15 K, w2 = 0.6): 1407.2 ± 1.4 m/s
- speed of sound (303.15 K, w2 = 0.7): 1417.2 ± 1.4 m/s
- speed of sound (303.15 K, w2 = 0.8): 1427.6 ± 1.5 m/s
- speed of sound (303.15 K, w2 = 0.8999): 1438.6 ± 1.5 m/s
- mass density (303.15 K, w2 = 0.1003): 871.18 ± 0.23 kg/m3
- mass density (303.15 K, w2 = 0.2002): 880.33 ± 0.24 kg/m3
- mass density (303.15 K, w2 = 0.3): 889.67 ± 0.24 kg/m3
- mass density (303.15 K, w2 = 0.4002): 899.23 ± 0.25 kg/m3
- mass density (303.15 K, w2 = 0.5): 908.96 ± 0.25 kg/m3
- mass density (303.15 K, w2 = 0.6): 918.92 ± 0.26 kg/m3
- mass density (303.15 K, w2 = 0.7): 929.09 ± 0.27 kg/m3
- mass density (303.15 K, w2 = 0.8): 939.47 ± 0.29 kg/m3
- mass density (303.15 K, w2 = 0.8999): 950.07 ± 0.3 kg/m3
- speed of sound (313.15 K, w2 = 0.1003): 1325.3 ± 1.2 m/s
- speed of sound (313.15 K, w2 = 0.2002): 1333.1 ± 1.3 m/s
- speed of sound (313.15 K, w2 = 0.3): 1341.3 ± 1.3 m/s
- speed of sound (313.15 K, w2 = 0.4002): 1349.9 ± 1.3 m/s
- speed of sound (313.15 K, w2 = 0.5): 1358.9 ± 1.4 m/s
- speed of sound (313.15 K, w2 = 0.6): 1368.4 ± 1.4 m/s
- speed of sound (313.15 K, w2 = 0.7): 1378.4 ± 1.4 m/s
- speed of sound (313.15 K, w2 = 0.8): 1388.9 ± 1.5 m/s
- speed of sound (313.15 K, w2 = 0.8999): 1400 ± 1.5 m/s
- mass density (313.15 K, w2 = 0.1003): 863.68 ± 0.23 kg/m3
- mass density (313.15 K, w2 = 0.2002): 872.76 ± 0.24 kg/m3
- mass density (313.15 K, w2 = 0.3): 882.05 ± 0.24 kg/m3
- mass density (313.15 K, w2 = 0.4002): 891.55 ± 0.25 kg/m3
- mass density (313.15 K, w2 = 0.5): 901.24 ± 0.25 kg/m3
- mass density (313.15 K, w2 = 0.6): 911.15 ± 0.26 kg/m3
- mass density (313.15 K, w2 = 0.7): 921.27 ± 0.27 kg/m3
- mass density (313.15 K, w2 = 0.8): 931.61 ± 0.29 kg/m3
- mass density (313.15 K, w2 = 0.8999): 942.17 ± 0.3 kg/m3
- speed of sound (323.15 K, w2 = 0.1003): 1286.7 ± 1.2 m/s
- speed of sound (323.15 K, w2 = 0.2002): 1294.5 ± 1.2 m/s
- speed of sound (323.15 K, w2 = 0.3): 1302.8 ± 1.3 m/s
- speed of sound (323.15 K, w2 = 0.4002): 1311.5 ± 1.3 m/s
- speed of sound (323.15 K, w2 = 0.5): 1320.7 ± 1.4 m/s
- speed of sound (323.15 K, w2 = 0.6): 1330.2 ± 1.4 m/s
- speed of sound (323.15 K, w2 = 0.7): 1340.4 ± 1.4 m/s
- speed of sound (323.15 K, w2 = 0.8): 1350.9 ± 1.5 m/s
- speed of sound (323.15 K, w2 = 0.8999): 1362 ± 1.5 m/s
- mass density (323.15 K, w2 = 0.1003): 856.15 ± 0.23 kg/m3
- mass density (323.15 K, w2 = 0.2002): 865.18 ± 0.24 kg/m3
- mass density (323.15 K, w2 = 0.3): 874.42 ± 0.24 kg/m3
- mass density (323.15 K, w2 = 0.4002): 883.87 ± 0.25 kg/m3
- mass density (323.15 K, w2 = 0.5): 893.51 ± 0.26 kg/m3
- mass density (323.15 K, w2 = 0.6): 903.37 ± 0.26 kg/m3
- mass density (323.15 K, w2 = 0.7): 913.45 ± 0.27 kg/m3
- mass density (323.15 K, w2 = 0.8): 923.75 ± 0.29 kg/m3
- mass density (323.15 K, w2 = 0.8999): 934.26 ± 0.3 kg/m3
- speed of sound (333.15 K, w2 = 0.1003): 1248.7 ± 1.2 m/s
- speed of sound (333.15 K, w2 = 0.2002): 1256.7 ± 1.2 m/s
- speed of sound (333.15 K, w2 = 0.3): 1265.1 ± 1.3 m/s
- speed of sound (333.15 K, w2 = 0.4002): 1273.9 ± 1.3 m/s
- speed of sound (333.15 K, w2 = 0.5): 1283.1 ± 1.3 m/s
- speed of sound (333.15 K, w2 = 0.6): 1292.7 ± 1.4 m/s
- speed of sound (333.15 K, w2 = 0.7): 1303 ± 1.4 m/s
- speed of sound (333.15 K, w2 = 0.8): 1313.5 ± 1.5 m/s
- speed of sound (333.15 K, w2 = 0.8999): 1324.8 ± 1.5 m/s
- mass density (333.15 K, w2 = 0.1003): 848.6 ± 0.24 kg/m3
- mass density (333.15 K, w2 = 0.2002): 857.58 ± 0.24 kg/m3
- mass density (333.15 K, w2 = 0.3): 866.77 ± 0.24 kg/m3
- mass density (333.15 K, w2 = 0.4002): 876.17 ± 0.25 kg/m3
- mass density (333.15 K, w2 = 0.5): 885.76 ± 0.26 kg/m3
- mass density (333.15 K, w2 = 0.6): 895.58 ± 0.26 kg/m3
- mass density (333.15 K, w2 = 0.7): 905.62 ± 0.27 kg/m3
- mass density (333.15 K, w2 = 0.8): 915.87 ± 0.29 kg/m3
- mass density (333.15 K, w2 = 0.8999): 926.34 ± 0.3 kg/m3
- mass density (343.15 K, w2 = 0.1003): 841 ± 0.5 kg/m3
- mass density (343.15 K, w2 = 0.2002): 850 ± 0.5 kg/m3
- mass density (343.15 K, w2 = 0.3): 859.1 ± 0.5 kg/m3
- mass density (343.15 K, w2 = 0.4002): 868.3 ± 0.5 kg/m3
- mass density (343.15 K, w2 = 0.5): 878 ± 0.5 kg/m3
- mass density (343.15 K, w2 = 0.6): 887.9 ± 0.5 kg/m3
- mass density (343.15 K, w2 = 0.7): 897.7 ± 0.5 kg/m3
- mass density (343.15 K, w2 = 0.8): 907.9 ± 0.5 kg/m3
- mass density (343.15 K, w2 = 0.8999): 918.5 ± 0.6 kg/m3
- mass density (353.1 K, w2 = 0.1003): 833.2 ± 0.5 kg/m3
- mass density (353.1 K, w2 = 0.2002): 842.3 ± 0.5 kg/m3
- mass density (353.1 K, w2 = 0.3): 851.4 ± 0.5 kg/m3
- mass density (353.1 K, w2 = 0.4002): 860.6 ± 0.5 kg/m3
- mass density (353.1 K, w2 = 0.5): 870.2 ± 0.5 kg/m3
- mass density (353.1 K, w2 = 0.6): 880 ± 0.5 kg/m3
- mass density (353.1 K, w2 = 0.7): 889.8 ± 0.5 kg/m3
- mass density (353.1 K, w2 = 0.8): 900 ± 0.5 kg/m3
- mass density (353.1 K, w2 = 0.8999): 910.5 ± 0.6 kg/m3
- mass density (363.1 K, w2 = 0.1003): 825.5 ± 0.5 kg/m3
- mass density (363.1 K, w2 = 0.2002): 834.6 ± 0.5 kg/m3
- mass density (363.1 K, w2 = 0.3): 843.5 ± 0.5 kg/m3
- mass density (363.1 K, w2 = 0.4002): 852.8 ± 0.5 kg/m3
- mass density (363.1 K, w2 = 0.5): 862.3 ± 0.5 kg/m3
- mass density (363.1 K, w2 = 0.6): 872.1 ± 0.5 kg/m3
- mass density (363.1 K, w2 = 0.7): 881.8 ± 0.5 kg/m3
- mass density (363.1 K, w2 = 0.8): 892 ± 0.5 kg/m3
- mass density (363.1 K, w2 = 0.8999): 902.4 ± 0.6 kg/m3
- mass density (373.1 K, w2 = 0.1003): 817.9 ± 0.5 kg/m3
- mass density (373.1 K, w2 = 0.2002): 826.9 ± 0.5 kg/m3
- mass density (373.1 K, w2 = 0.3): 835.8 ± 0.5 kg/m3
- mass density (373.1 K, w2 = 0.4002): 844.9 ± 0.5 kg/m3
- mass density (373.1 K, w2 = 0.5): 854.5 ± 0.5 kg/m3
- mass density (373.1 K, w2 = 0.6): 864.2 ± 0.5 kg/m3
- mass density (373.1 K, w2 = 0.7): 874 ± 0.5 kg/m3
- mass density (373.1 K, w2 = 0.8): 883.9 ± 0.5 kg/m3
- mass density (373.1 K, w2 = 0.8999): 894.4 ± 0.6 kg/m3
